Experimental data as given in patent US20130085133A1, “ANTI-VIRAL TREATMENT AND ASSAY TO SCREENFOR ANTI-VIRAL AGENT” (Sourthern Research Institute Office of Commercialization …, priority 2010, published 2013).
In brackets after ≈: the same amount, converted by molar mass. Like-named read-outs stand apart in the source and are kept apart here.

Columns and labels:
RSV, Long strain = assay: virus titer Reduction (VTR) assay, progeny virus TCID50 in HEp-2 cells; format: cell-based, respiratory syncytial virus (RSV); conditions: for TCID-50 Reduction @ 3 ug/ml / log reduction at 3 µg/mL: 3 ug/ml compound; for TCID-50 Reduction @ 3 ug/ml / TCID-50 Reduction 6 @ ug/ml / TCID-50 Reduction 12 @ ug/ml / TCID-50 Reduction 25 @ ug/ml: log reduction in progeny virus titer; for TCID-50 Reduction 6 @ ug/ml / log reduction at 6 µg/mL: 6 ug/ml compound; for TCID-50 Reduction 12 @ ug/ml / log reduction at 12 µg/mL: 12 ug/ml compound; for TCID-50 Reduction 25 @ ug/ml / log reduction at 25 µg/mL: 25 ug/ml compound; for log reduction at 3 µg/mL / log reduction at 6 µg/mL / log reduction at 12 µg/mL / log reduction at 25 µg/mL: human respiratory syncytial virus, 48 h; for log reduction at 3 µg/mL: read-out: TCID-50 Reduction @ 3 ug/ml; for log reduction at 6 µg/mL: read-out: TCID-50 Reduction 6 @ ug/ml; for log reduction at 12 µg/mL: read-out: TCID-50 Reduction 12 @ ug/ml; for log reduction at 25 µg/mL: read-out: TCID-50 Reduction 25 @ ug/ml
Method: Four concentrations of each compound were evaluated (Table 3). Briefly, the four concentrations of test compounds, HEp-2 cells (8×10^3 per well) and RSV, Long strain (MOI=0.9) were plated in 96 well microtiter plates. The plates were incubated for 48 hours. Fifteen (15) μl of 10-fold serial dilution of progeny virus containing medium from respective samples (test compound treated or untreated) was transferred to infect fresh HEp-2 cells (2×10^3 cells per well) in a 384 well format. Plates were incubated for an additional 6 days and luminescence was measured using Cell Titer-Glo reagent (Promega Inc.) to determine cell viability. […] A well showing lesser than 50% cell viability was regarded as positive for virus infection. Four replicates for each virus dilution were analyzed and the number of virus positive wells (out of 4) was plotted versus the dilution. TCID50 was calculated to be the dilution that produced two positive wells out of four using ActivityBase software (IDBS, Inc, Guilford, UK).

[1] = tested on: respiratory syncytial virus (RSV) strain Long; conditions: EC50 for CPE inhibition, HEp-2 cells, six days; unit not given; tested range 25 ug/mL to 0.048 ug/mL (Chembridge), 50 uM to 0.097 uM (Enamine, SRI Proprietary)
HEp-2 cells = assay: cytotoxicity assay (percent viability of HEp-2 cells, Cell Titer-Glo); conditions: cell viability of HEp-2 cells (text: IC50); unit not given; top concentration 25 ug/mL (Chembridge), 50 uM (Enamine, SRI Proprietary)
[2] = tested on: respiratory syncytial virus (RSV) strain Long; assay: microbe, parasite or virus in culture; conditions: human respiratory syncytial virus, HEp-2, 144 h
Method: The assay measures RSV virus-induced CPE in HEp-2 cells using cell viability as the end point.
Two vials of RSV (strain Long) containing 1×10^7 pfu/mL was thawed using an Eppendorf thermomixer for 13 min at 15° C., with shaking at 350 rpm. […] The cells were incubated for 18-20 h at 37° C., 5% CO2, 90% relative humidity. The medium was aspirated and the cells washed with 10 mL PBS without Mg^2+ or Ca^2+. Cells were harvested from flasks using 0.25% trypsin-EDTA. The cells were resuspended in a freezing medium of 95% fetal calf serum and 5% DMSO to a final cell density of 2×10^6 cells/mL. One mL aliquots of this virus infected cell suspension were dispensed to cryovials and cells were rate frozen to −80° C. Frozen infected cells were then transferred to −150° C. for long term storage.
Test compounds were evaluated by measuring their antiviral activity, cell toxicity, and selectivity. Test compounds were serially diluted in a plate to plate matrix or “stacked plate” matrix. All 320 compounds in a source plate were diluted together resulting in a 10 point dose response dilution series. It was visualized as a serial dilution series proceeding vertically through a stack of plates with the high dose plate on top and the low dose plate on the bottom.
Cells were harvested and resuspended to 80,000 cells per ml in Complete DMEM/F12.
Cells were thawed in a room temperature water bath with gentle agitation. The tube was inverted 5-10. Cells were diluted to 80,000 cells per ml by adding the contents of the vial to 24 ml of cold (4° C.) media.
Twenty five ul of uninfected HEp-2 cells were plated in the cell control wells. Frozen infected cells were combined with uninfected HEp-2 cells at a 1:100 ratio. Twenty five ul of the cell mixture was added to the virus control and compound wells. All cell plating was conducted using a Matrix WellMate and cells were maintained at room temperature with stirring during the plating process. The assay plates were incubated for six days at 37° C., 5% CO2 and 90% relative humidity.
Following the six day incubation period, the assay plates were equilibrated to room temperature for 30 min and an equal volume (30 μL) of Cell Titer-Glo reagent (Promega Inc.) was added to each well using a WellMate (Matrix, Hudson, N.H.) and plates were incubated for an additional 10 min at room temperature. At the end of the incubation, luminescence was measured using a Perkin Elmer Envision™ multi-label reader (PerkinElmer, Wellesley, Mass.) with an integration time of 0.1 s.
Data was analyzed using ActivityBase software (IDBS, Inc, Guilford, UK). thirty two control wells containing cells only and twenty four wells containing cells and virus were included on each assay plate and used to calculate Z′ value for each plate and to normalize the data on a per plate basis. […] Eight ribavirin positive control wells were included on each plate for quality control purposes, but were not used in Z′ calculations. […] In the toxicity assay, results are described as percent viability and the calculation is the same.
An EC50 (for CPE inhibition) and IC50 (for cell viability) were calculated for each substance using the 4 parameter Levenburg-Marquardt algorithm with parameter A locked at 0 and parameter B locked at 100. Standard deviation, normalized chi2 and hill slope were used to evaluate the curves. Values were not extrapolated beyond the tested range of concentrations.

[3] = cytotoxicity assay (percent viability of HEp-2 cells, Cell Titer-Glo); conditions: human, HEp-2 cells

| Compound | EC50 [1] | CC50 (HEp-2 cells) | also measured |
| --- | --- | --- | --- |
| Cc1ccc2[nH]c3c(c2c1)CN(C)CC3 [AB00275559] | 6.29 | >25.00 | TCID-50 Reduction @ 3 ug/ml (RSV, Long strain): 1.00; TCID-50 Reduction 6 @ ug/ml (RSV, Long strain): 1.93; TCID-50 Reduction 12 @ ug/ml (RSV, Long strain): 2.21; TCID-50 Reduction 25 @ ug/ml (RSV, Long strain): 1.93 |
| CCN(CC)C(=O)C1CCCc2c1[nH]c1ccc(Cl)cc21 (stereo not drawn) [AB00279132] | 1.92 | >25.00 | TCID-50 Reduction @ 3 ug/ml (RSV, Long strain): 1.00; TCID-50 Reduction 6 @ ug/ml (RSV, Long strain): 3.63; TCID-50 Reduction 12 @ ug/ml (RSV, Long strain): 4.22; TCID-50 Reduction 25 @ ug/ml (RSV, Long strain): 3.83 |
| CCC(Sc1nnc2c3ccccc3n(CCc3ccccc3)c2n1)C(=O)Nc1ccc(S(N)(=O)=O)cc1 (stereo not drawn) [AB00287440] | 17.84 | >25.00 |  |
| N#CCCCSc1nnnn1-c1cccc(Cl)c1 [AB00287736] | 16.16 | >25.00 |  |
| Cc1[nH]c2ccccc2c1-c1csc(-c2ccncc2)n1 [AB00291074] | 20.59 | >25.00 |  |
| COc1cc(OC)c(OC)cc1C=Nn1c(S)nnc1-c1ccc(C(C)(C)C)cc1 [AB00291789] | 10.96 | >25.00 |  |
| COc1ccc(-c2cn3cccnc3n2)cc1F [AB00292655] | 10.88 | >25.00 |  |
| C=CCn1c(SCc2ccc(OC)c([N+](=O)[O-])c2)nnc1-c1cccc(Br)c1 [AB00294809] | 20.29 | >25.00 |  |
| Fc1ccc(-c2cc(C(F)(F)F)n[nH]2)cc1 [AB00294826] | 16.73 | >25.00 |  |
| CC(=O)Nc1ccc(Nc2ncnc3sc4c(c23)CCCC4)cc1 [AB00296051] | 16.70 | >25.00 |  |
| S=C(c1c[nH]c2ccc(Br)cc12)N1CCOCC1 [AB00303357] | 21.92 | >25.00 |  |
| O=C(O)CCNc1nc(Cc2ccccc2)nc2sc3c(c12)CCCC3 [AB00308859] | 20.48 | >25.00 |  |
| COc1cc(N2CCCC2)c(OC)cc1C=C(C#N)c1nc2ccccc2[nH]1 [AB00321587] | 9.15 | >25.00 |  |
| Cc1cc(C=C(C#N)c2nc3ccccc3[nH]2)c(C)n1-c1ccccn1 [AB00342188] | 13.11 | >25.00 |  |
| Cc1ccc(-c2nc3ccccc3[nH]2)cc1NC(=O)c1ccc2c(c1)OCO2 [AB00348716] | 17.26 | >25.00 |  |
| CCCOc1ccc(-c2n[nH]c(SCc3ccc(C(=O)OC)o3)n2)cc1 [AB00356597] | 11.59 | >25.00 |  |
| Brc1cc2nc[nH]c2c2ccccc12 [AB00358081] | 12.07 | >25.00 |  |
| O=C(Nc1cccc(NC(=O)C23CC4CC(CC(C4)C2)C3)c1)c1ccccc1F [AB00359685] |  |  | log reduction at 3 µg/mL (RSV, Long strain): 1; log reduction at 6 µg/mL (RSV, Long strain): 2.13; log reduction at 12 µg/mL (RSV, Long strain): 4.4; log reduction at 25 µg/mL (RSV, Long strain): 4.94; EC50 [2]: 9.42 µg/mL (≈ 24 µM); CC50 at 6 days [3]: > 25 µg/mL |
| O=C(Cc1c(F)cccc1Cl)Nc1nc2c(s1)CCCC2 [AB00361531] |  |  | log reduction at 3 µg/mL (RSV, Long strain): 1.55; log reduction at 6 µg/mL (RSV, Long strain): 1.74; log reduction at 12 µg/mL (RSV, Long strain): 3.09; log reduction at 25 µg/mL (RSV, Long strain): 3.78; EC50 [2]: 0.83 µg/mL (≈ 2.56 µM); CC50 at 6 days [3]: > 25 µg/mL |
| COc1ccc(CNCCC(c2ccc(F)cc2)c2ccco2)cc1OC (stereo not drawn) [AB00362846] |  |  | log reduction at 3 µg/mL (RSV, Long strain): 1; log reduction at 6 µg/mL (RSV, Long strain): 1.92; log reduction at 12 µg/mL (RSV, Long strain): 2.82; log reduction at 25 µg/mL (RSV, Long strain): 5.48; EC50 [2]: 4.47 µg/mL (≈ 12.1 µM); CC50 at 6 days [3]: > 25 µg/mL |
